Some test systems named below: COLO 205; IGROV-1; A549; M14; SK-MEL-28; RPMI-8226; UACC-257; KM12; HOP-92; MOLT-4; NCI-H226; NCI-H23; K562; HOP-62; SF-268; SN12C; OVCAR-5; CCRF-CEM; OVCAR-3; NCI/ADR-RES.
Holding throughout (experiment): NCI anticancer screen, dose series, 48 h

From ChEMBL document CHEMBL1201862, “PubChem BioAssay data set” (2004) come the findings set out here.

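Interpolation was linear, between the two tested concentrations surrounding the appropriate level; five concentrations were tested over 48 hours in 96-well plates. The concentration for 50% growth inhibition is given as GI50.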 Active and inactive are the calls of the source. Rule as the data show it: active = GI50 up to about 1.1 µM and inactive = higher.

Turning to `Nc1nnc2nc(CC(=O)/C=C/c3ccccc3)c(=O)[nH]n12`, the GI50 with COLO 205, in the test on IGROV-1, with A549, in the test with M14, in the test on SK-MEL-28 and in the test with RPMI-8226 was > 100 µM (inactive) throughout. In addition, the GI50 with UACC-257, in the test with KM12, with HOP-92, in the test on MOLT-4, in the test with NCI-H226 and in the test on NCI-H23 was > 100 µM (inactive) in each case. Besides, the GI50 with K562, in the test on HOP-62, in the test with SF-268, with SN12C, with OVCAR-5 and in the test with CCRF-CEM was > 100 µM (inactive) each time. Further, in the test on OVCAR-3, the GI50 is > 100 µM (inactive).
For the molecule `COc1ccc(C2NCCc3c2[nH]c2ccccc32)cc1` (stereo not drawn), the GI50 in the test with COLO 205 was 32.2 µM (inactive); with IGROV-1, > 100 µM (inactive); with A549 it was 48.2 µM (inactive); with M14, 23.2 µM (inactive); in the test on SK-MEL-28, 5.22 µM (inactive); with RPMI-8226 it was > 100 µM (inactive). The GI50 with UACC-257 is 45.6 µM (inactive); in the test on KM12, > 100 µM (inactive); with HOP-92 it was > 100 µM (inactive); with MOLT-4, > 100 µM (inactive); with NCI-H226 it was > 100 µM (inactive); in the test with NCI-H23, > 100 µM (inactive). The GI50 with K562 is 60.8 µM (inactive); with HOP-62, 21.2 µM (inactive); with SF-268, > 100 µM (inactive); in the test with SN12C, > 100 µM (inactive); in the test with OVCAR-5, > 100 µM (inactive); with CCRF-CEM it was 77.6 µM (inactive). Further, in the test with OVCAR-3, the GI50 was > 100 µM (inactive).
In the case of `C[n+]1c2ccccc2c(C(=O)NC(CCCNC(=N)N)C(=O)O)c2ccccc21` (stereo not drawn), the GI50 in the test with COLO 205, in the test with IGROV-1, in the test with A549, in the test with M14, in the test on SK-MEL-28 and in the test on RPMI-8226 was > 100 µM (inactive) in each case. Further, the GI50 in the test on UACC-257, in the test with KM12, in the test on NCI/ADR-RES, in the test with MOLT-4, in the test with NCI-H23 and in the test on K562 was > 100 µM (inactive) each time. For the same molecule, the GI50 with HOP-62, in the test on SF-268, in the test with SN12C, in the test on OVCAR-5 and in the test with OVCAR-3 was > 100 µM (inactive) in each case.
As for `CC1(CO)C(=O)OC12CCCCC2` (stereo not drawn), the GI50 in the test with COLO 205, with IGROV-1, in the test with A549, in the test with M14, in the test with SK-MEL-28 and in the test on RPMI-8226 was > 100 µM (inactive) in each case. The GI50 in the test on UACC-257, in the test on KM12, in the test with HOP-92, in the test with MOLT-4, with NCI-H226 and in the test on NCI-H23 was > 100 µM (inactive) in each case. Also, the GI50 in the test on K562, in the test on HOP-62, in the test on SF-268, in the test with SN12C, with CCRF-CEM and in the test with OVCAR-3 was > 100 µM (inactive) in each case.
Turning to `COc1ccc(C(=O)Nc2ccn(CCOC(=O)c3ccc(OC)cc3)c(=O)n2)cc1`, the GI50 with COLO 205, in the test on IGROV-1, with A549, in the test with M14, with SK-MEL-28 and with RPMI-8226 was > 100 µM (inactive) in each case. The GI50 in the test on UACC-257 was > 100 µM (inactive); with KM12 it was > 100 µM (inactive); with HOP-92, 63 µM (inactive); with NCI-H226, > 100 µM (inactive); with K562, > 100 µM (inactive); in the test on HOP-62, 51.1 µM (inactive). The GI50 with SF-268 is 43.9 µM (inactive); with SN12C it was > 100 µM (inactive); in the test with OVCAR-5 it was > 100 µM (inactive); in the test with CCRF-CEM it was > 100 µM (inactive); in the test on OVCAR-3, > 100 µM (inactive).
For `CC(=O)NC(CCCN)C(=O)NCc1ccccc1` (stereo not drawn), the GI50 in the test on COLO 205, in the test on IGROV-1, in the test on A549, in the test on M14, with SK-MEL-28 and in the test with RPMI-8226 was > 100 µM (inactive) throughout. For the same molecule, the GI50 in the test with UACC-257, in the test on KM12, in the test on HOP-92, with MOLT-4, in the test with NCI-H226 and with NCI-H23 was > 100 µM (inactive) each time. For the same molecule, the GI50 with K562, with HOP-62, in the test with SF-268, in the test on SN12C, in the test on OVCAR-5 and in the test with CCRF-CEM was > 100 µM (inactive) in each case. The GI50 with OVCAR-3 was > 100 µM (inactive).
With `NC(=O)NC(=O)C1CCC(=O)N1S(=O)(=O)c1ccc(Cl)cc1` (stereo not drawn), the GI50 with COLO 205, in the test with IGROV-1, in the test with A549, in the test with M14, in the test on SK-MEL-28 and in the test on RPMI-8226 was > 100 µM (inactive) throughout. The GI50 in the test on UACC-257, with KM12, in the test with HOP-92, in the test with MOLT-4, in the test on NCI-H226 and in the test with NCI-H23 was > 100 µM (inactive) each time. The GI50 with K562 is > 100 µM (inactive); in the test on HOP-62, > 100 µM (inactive); in the test with SF-268, > 100 µM (inactive); in the test on SN12C, > 100 µM (inactive); in the test with CCRF-CEM it was 77.4 µM (inactive); in the test with OVCAR-3, > 100 µM (inactive).
Take `CC1=C(C(=O)Nc2cc(F)c(F)cc2F)C(c2ccc(N(C)C)cc2)C(C(=O)Nc2cc(F)c(F)cc2F)=C(C)N1`: the GI50 in the test on COLO 205 was 43.2 µM (inactive); in the test on IGROV-1, 35.5 µM (inactive); in the test on A549, 16.4 µM (inactive); in the test with M14, 31.3 µM (inactive); with SK-MEL-28 it was 30.5 µM (inactive); in the test with RPMI-8226, 17.2 µM (inactive). Also, the GI50 was 25.5 µM (inactive) with UACC-257; 19.9 µM (inactive) in the test with KM12; 0.53 µM (active) in the test with HOP-92; 15.4 µM (inactive) with MOLT-4; 20.6 µM (inactive) with NCI-H226; 20.9 µM (inactive) in the test on NCI-H23. Moreover, the GI50 in the test on K562 is 23.6 µM (inactive); in the test on HOP-62 it was 21.1 µM (inactive); with SF-268, 27 µM (inactive); in the test with SN12C, 30.1 µM (inactive); in the test on OVCAR-5, 32.5 µM (inactive); in the test on CCRF-CEM, 18.5 µM (inactive). Also, the GI50 with OVCAR-3 was 0.432 µM (active).
With `Cc1ccc(Cc2cc(N3CCN(c4cccc(Cl)c4)CC3)nnc2C)cc1`, the GI50 in the test on COLO 205 is 29.6 µM (inactive); in the test with A549, 43 µM (inactive); in the test with M14, > 100 µM (inactive); with SK-MEL-28, > 100 µM (inactive); with RPMI-8226, 17.8 µM (inactive); in the test on UACC-257, 14.2 µM (inactive). Moreover, the GI50 in the test with KM12 is 44.4 µM (inactive); in the test on NCI/ADR-RES it was 43.3 µM (inactive); with NCI-H23, 37.7 µM (inactive); in the test on HOP-62, > 100 µM (inactive); in the test on SF-268 it was > 100 µM (inactive); in the test on SN12C, 56.4 µM (inactive). The GI50 with OVCAR-5 and in the test with OVCAR-3 was > 100 µM (inactive) throughout.
Take `Cc1cccc(O)c1-c1nnc(CCCCCCCCc2nnc(-c3c(C)cccc3O)n2N)n1N`: the GI50 in the test on COLO 205 is > 31.6 µM (inactive); in the test with IGROV-1, > 100 µM (inactive); with A549 it was > 46.5 µM (inactive); in the test on M14, > 39.7 µM (inactive); in the test with SK-MEL-28 it was > 50.2 µM (inactive); with RPMI-8226, > 100 µM (inactive). In addition, the GI50 with UACC-257 was > 100 µM (inactive); in the test with KM12, 95.1 µM (inactive); in the test with HOP-92 it was 18 µM (inactive); in the test with MOLT-4, 8.41 µM (inactive); in the test on NCI-H226 it was 55.7 µM (inactive); with NCI-H23, 48.6 µM (inactive). Moreover, the GI50 in the test with K562 was > 100 µM (inactive); with HOP-62, 27.6 µM (inactive); in the test on SF-268, 51.3 µM (inactive); in the test on SN12C it was > 100 µM (inactive); with OVCAR-5, > 100 µM (inactive); in the test with CCRF-CEM, 0.929 µM (active). For the same molecule, the GI50 in the test on OVCAR-3 is 50.5 µM (inactive).
As to `CC(C)C1COC(C(C)(C)C2=N[C@@H](C(C)C)CO2)=N1` (stereo partly drawn), the GI50 in the test on COLO 205, with IGROV-1, in the test on A549, in the test with M14, in the test on SK-MEL-28 and in the test on RPMI-8226 was > 100 µM (inactive) throughout. For the same molecule, the GI50 was > 100 µM (inactive) with UACC-257; > 100 µM (inactive) in the test on KM12; 70.3 µM (inactive) in the test on HOP-92; > 100 µM (inactive) with MOLT-4; > 100 µM (inactive) with NCI-H226; > 100 µM (inactive) in the test with NCI-H23. The GI50 with K562, with HOP-62, in the test with SF-268, in the test with SN12C, in the test on OVCAR-5 and with CCRF-CEM was > 100 µM (inactive) each time. For the same molecule, in the test with OVCAR-3, the GI50 is > 100 µM (inactive).
